# “Also recorded” adds a separate entry of the source. Read-outs that look alike come from different tables or passages of the source.
# Experiments:
# Parameters in all cases: species or system moorland maritime pine
# [1] = Caustic soda cooking (delignification) with adjuvant; settings: for Kappa index: NFT 12018
# Procedure: Shavings of moorland maritime pine are subjected to heating in an autoclave with a caustic soda liquor. The cooking conditions are as follows:
# Amount of caustic soda: 22% by weight with respect to the dry vegetable material.
# Ratio of liquor/vegetable material: 4
# Temperature of cooking: 170° C.
# Time in which the cooking temperature
# Time of cooking: 90 minutes
# Amount of adjuvant: 0-0.1%-0.5%-1% by weight with respect to the dry vegetable material
# After cooking, the pulps obtained are washed, disintegrated on a 3 mm grid (Vewerk grader or sorter).
# The crude yield and the yield of sorted pulp are determined on the pulps, and the Kappa index according to French standard NFT 12018 are determined on the raw pulps.
# The pH and the consumption of caustic soda are determined on the liquors after cooking.
# A comparative test with 0.5% of anthraquinone was carried out under the same operational conditions as in Example 9.
# [2] = Mechanical characteristics of raw pulps from caustic soda cooking, refined at 40° SR; settings: for Index of rupture / Index of tearing / Length of rupture / Resistance to bending: 0.5% adjuvant, 40° SR
# Procedure: (§1) The raw pulps for reference and those obtained with 0.5% of adjuvant in the cooking are refined in a Jokro mill.
# (§2) Sheets for physical tests are produced on a Rapid Kothen mold. Their weight per m^2 is about 70 g.
# (§3) The following mechanical characteristics are determined:
# (§4) Length of break: AFNOR NFQ 03004 standard
# (§5) Index of splitting or cracking: AFNOR NFQ 03014 standard
# (§6) Tearing index: AFNOR NFQ 03011 standard
# (§7) Resistance to bending or folding: AFNOR NFQ 03001 standard
# The mechanical characteristics of the raw or unwashed pulps obtained after heating with caustic soda in the presence of 0.5% of adjuvant are compared with those of a conventional Kraft pulp (Table IV).
# Mechanical characteristics of raw pulps refined at
# 40° SR caustic soda cooking with 0.5% of adjuvant
# [3] = Kraft cooking (caustic soda-sulfuric liquor) with adjuvant
# Procedure: Shavings from moorland maritime pine are subjected to cooking in an autoclave with a caustic soda-sulfuric liquor under the following conditions:
# Proportion of active alkali: 22% by weight with respect to the dry vegetable material,
# Sulfidity: 25% with respect to the active alkali,
# Ratio liquor/vegetable material: 4
# Temperature of heating: 170° C.
# Time taken to arrive at the heating temperature: 90 min.,
# Time of heating: 120 min.
# Amount of adjuvant: 0-0.1%-0.5%-1% by weight with respect to the dry vegatable material.
# After cooking, the same operations as those described in Example 9 are carried out on the pulps and the cooking liquors. […]
# [4] = Mechanical characteristics of crude pulps from Kraft cooking, refined at 40° SR; settings: for Index of rupture / Index of tearing / Length of rupture / Resistance to bending: 0.5% adjuvant, 40° SR
# Procedure: as §1, §2, §3, §4, §5, §6, §7
# After cooking, the same operations as those described in Example 9 are carried out on the pulps and the cooking liquors.
# A comparative test with 0.5% of anthraquinone is effected under the same operational conditions as in Example 11. The mechanical characteristics of the pulps obtained are compared with those of a Kraft pulp for reference (Table VII).
# Mechanical characteristics of the crude pulps refined at
# 40° SR Kraft cooking with 0.5% of adjuvant
smiles,measurement,setting,value
"O=C1c2ccccc2C(=O)c2ccccc21 [Anthraquinone, anthraquinone, reference compound]",% Caustic soda consumed/wood,[1]; 0.5% adjuvant,17.5%
same,Classified yield,[1]; 0.5% adjuvant,46.2%
same,Crude yield,[1]; 0.5% adjuvant,46.8%
same,Kappa index,[1]; 0.5% adjuvant,32.2
same,Index of rupture,[2],5.07
same,Index of tearing,[2],813
same,Length of rupture,[2],"7,230 m"
same,Resistance to bending,[2],945
same,% Effective alkali consumed/wood,[3]; 0.5% adjuvant,17.4%
same,Classified yield,[3]; 0.5% adjuvant,43.8%
same,Crude yield,[3]; 0.5% adjuvant,44%
same,Kappa index,[3]; 0.5% adjuvant,24.3
same,mechanical characteristics / degradation of pulps,[4]; Kraft cooking,inferior mechanical characteristics; also recorded: a relatively large degradation is observed
same,Index of rupture,[4]; Kraft cooking,4.48
same,Index of tearing,[4]; Kraft cooking,808
same,Length of rupture,[4]; Kraft cooking,"5,850 m"
same,Resistance to bending,[4]; Kraft cooking,905
"O=C1c2ccccc2C(=O)C2CCCCC12 (stereo not drawn) [6 HAD, 1,2,3,4,4a,9a-hexahydro-9,10-anthracene-dione]",effect on delignification,[1],has the same effect as the anthraquinone
same,% Caustic soda consumed/wood,[1]; 0.1% adjuvant,16.9%
same,Classified yield,[1]; 0.1% adjuvant,45.7%
same,Crude yield,[1]; 0.1% adjuvant,46.2%
same,Kappa index,[1]; 0.1% adjuvant,51.7
same,% Caustic soda consumed/wood,[1]; 0.5% adjuvant,17.9%
same,Classified yield,[1]; 0.5% adjuvant,45.5%
same,Crude yield,[1]; 0.5% adjuvant,45.8%
same,Kappa index,[1]; 0.5% adjuvant,33.4
same,% Caustic soda consumed/wood,[1]; 1% adjuvant,18.1%
same,Classified yield,[1]; 1% adjuvant,45.5%
same,Crude yield,[1]; 1% adjuvant,45.7%
same,Kappa index,[1]; 1% adjuvant,28.0
same,effect on delignification,"[1]; listed as 1,2,3,4,4a,9a-hdxahydro9,10-anthracene-dione",accelerates the delignification and makes it more selective
same,Index of rupture,[2],4.82
same,Index of tearing,[2],922
same,Length of rupture,[2],"7,030 m"
same,Resistance to bending,[2],"1,846"
same,quality / mechanical properties of pulps,[2]; compared with conventional Kraft pulp,very near to the quality of the conventional Kraft pulp; also recorded: mechanical properties similar to those of Kraft pulps with a similar yield and Kappa indexes
same,"effect on delignification, Kappa index and yield",[3],"enables the Kappa index of the pulps to be appreciably lowered without alteration of the mechanical properties; also recorded: With identical Kappa indexes, yields greater than those of the Kraft process referred to can be obtained; also recorded: increases the kinetics and the selectivity of the delignification; also recorded: decrease of the Kappa index of the pulps without reduction of the yield of the cooking"
same,% Effective alkali consumed/wood,[3]; 0.1% adjuvant,17.5%
same,Classified yield,[3]; 0.1% adjuvant,44.3%
same,Crude yield,[3]; 0.1% adjuvant,44.6%
same,Kappa index,[3]; 0.1% adjuvant,27.4
same,% Effective alkali consumed/wood,[3]; 0.5% adjuvant,17.9%
same,Classified yield,[3]; 0.5% adjuvant,44.5%
same,Crude yield,[3]; 0.5% adjuvant,44.8%
same,Kappa index,[3]; 0.5% adjuvant,24.2
same,% Effective alkali consumed/wood,[3]; 1% adjuvant,18.2%
same,Classified yield,[3]; 1% adjuvant,44.3%
same,Crude yield,[3]; 1% adjuvant,44.4%
same,Kappa index,[3]; 1% adjuvant,22.0
same,mechanical characteristics / degradation of pulps,[4],more favorable than that of anthraquinone
same,Index of rupture,[4]; Kraft cooking,5.55
same,Index of tearing,[4]; Kraft cooking,847
same,Length of rupture,[4]; Kraft cooking,"7,000 m"
same,Resistance to bending,[4]; Kraft cooking,"1,917"

# Source: patent publication US4235666A, “1,2,3,4,4a,9a-Hexahydro-9,10-anthracene-dione, its preparation and its application to the delignification of lignocellulosic materials” (Produits Chimiques Ugine Kuhlmann, priority 1978, dated 1980)
